Experimental data published in PubChem BioAssay AID330 (DTP/NCI, 2004).
Values joined by “and” are separate entries in the source; they are usually repeats but may differ in a detail not shown here. Identical values can stand only once. Toxic doses and inconclusive results are not listed.

System: P388 leukemia ip, CD2F1 mice, survival T/C
Assay: NCI In Vivo Anticancer Drug Screen. Data for tumor model P388 Leukemia (intraperitoneal) in CD2F1 (CDF1) mice
Settings: endpoint: median survival time, higher = longer survival
In short: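 Mice carrying the transplanted tumor received test compound or vehicle. Survival was recorded in each group, and the value is the treated-group measurement divided by that of the vehicle-treated control group.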

[1] = dose: 50.0 mg/kg/injection, schedule: Q01DX005 (ip), vehicle: Klucel (hydroxypropylcellulose) (HPC)
[2] = dose: 100.0 mg/kg/injection, schedule: Q01DX005 (ip), vehicle: Klucel (hydroxypropylcellulose) (HPC)
[3] = dose: 50.0 mg/kg/injection, schedule: Q01DX005 (ip), vehicle: saline with Tween-80
[4] = dose: 100.0 mg/kg/injection, schedule: Q01DX005 (ip), vehicle: saline with Tween-80
[5] = dose: 120.0 mg/kg/injection, schedule: Q01DX005 (ip), vehicle: Klucel (hydroxypropylcellulose) (HPC)
[6] = dose: 240.0 mg/kg/injection, schedule: Q01DX005 (ip), vehicle: Klucel (hydroxypropylcellulose) (HPC)
[7] = dose: 60.0 mg/kg/injection, schedule: Q01DX005 (ip), vehicle: saline with Tween-80
[8] = dose: 120.0 mg/kg/injection, schedule: Q01DX005 (ip), vehicle: saline with Tween-80
[9] = dose: 50.0 mg/kg/injection, schedule: Q01DX009 (ip), vehicle: saline with Tween-80
[10] = dose: 100.0 mg/kg/injection, schedule: Q01DX009 (ip), vehicle: saline with Tween-80
[11] = dose: 200.0 mg/kg/injection, schedule: Q01DX009 (ip), vehicle: saline with Tween-80

CC1=CC[C@@H]2[C@@H](CC[C@@]2(C)O)C(C)(C)[C@H]1CC[C@@H]1[C@@]2(C)CCC(=O)C(C)(C)O[C@@H]2CC[C@]1(C)O
T/C (dose: 7.5 mg/kg/injection, schedule: Q01DX005 (ip), vehicle: saline + Tween-80 + alcohol): 92 % of control
T/C (dose: 15.0 mg/kg/injection, schedule: Q01DX005 (ip), vehicle: saline + Tween-80 + alcohol): 98 % of control
T/C (dose: 30.0 mg/kg/injection, schedule: Q01DX005 (ip), vehicle: saline + Tween-80 + alcohol): 97 % of control
T/C (dose: 60.0 mg/kg/injection, schedule: Q01DX005 (ip), vehicle: saline + Tween-80 + alcohol): 103 % of control

COC(=O)Nc1ccc(NC(=O)OC)c2c1C(=O)c1ccccc1C2=O
T/C (dose: 50.0 mg/kg/injection, schedule: Q01DX005 (ip), vehicle: saline): 95 % of control
T/C (dose: 100.0 mg/kg/injection, schedule: Q01DX005 (ip), vehicle: saline): 95 % of control
T/C (dose: 200.0 mg/kg/injection, schedule: Q01DX005 (ip), vehicle: saline): 88 % of control

NC(CC(=O)NO)C(=O)O (stereo unspecified)
T/C (dose: 200.0 mg/kg/injection, schedule: Q01DX009 (ip), vehicle: saline): 110 % of control
T/C (dose: 400.0 mg/kg/injection, schedule: Q01DX009 (ip), vehicle: saline): 120 % of control

CC(=O)CC(=O)C1C(S[As](C)C)CC2C3CCC4=CC(=O)C=CC4(C)C3C(=O)CC21C (stereo unspecified)
T/C [1]: 102 % of control
T/C [2]: 91 % of control and 94 % of control
T/C (dose: 200.0 mg/kg/injection, schedule: Q01DX005 (ip), vehicle: Klucel (hydroxypropylcellulose) (HPC)): 94 % of control and 98 % of control

O=C(O)C1C2OC2C2OC2C1C(=O)O (stereo unspecified)
T/C (dose: 25.0 mg/kg/injection, schedule: Q01DX001 (ip), vehicle: Klucel (hydroxypropylcellulose) (HPC)): 89 % of control
T/C (dose: 50.0 mg/kg/injection, schedule: Q01DX001 (ip), vehicle: Klucel (hydroxypropylcellulose) (HPC)): 92 % of control
T/C (dose: 100.0 mg/kg/injection, schedule: Q01DX001 (ip), vehicle: Klucel (hydroxypropylcellulose) (HPC)): 88 % of control

O=C(/C=C/c1ccc(O)c(O)c1)NCC(=O)NC(Cc1ccccc1)C(=O)O (stereo unspecified)
T/C [3]: 99 % of control
T/C [4]: 100 % of control
T/C (dose: 200.0 mg/kg/injection, schedule: Q01DX005 (ip), vehicle: saline with Tween-80): 103 % of control

O=C(N/N=C\c1ccc(O)cc1O)C(=O)N/N=C\c1ccc(O)cc1O
T/C (dose: 50.0 mg/kg/injection, schedule: Q01DX009 (ip), vehicle: Klucel (hydroxypropylcellulose) (HPC)): 98 % of control
T/C (dose: 100.0 mg/kg/injection, schedule: Q01DX009 (ip), vehicle: Klucel (hydroxypropylcellulose) (HPC)): 105 % of control
T/C (dose: 200.0 mg/kg/injection, schedule: Q01DX009 (ip), vehicle: Klucel (hydroxypropylcellulose) (HPC)): 100 % of control

Fc1cccc(Cl)c1C(Nc1nncs1)Nc1nncs1
T/C [5]: 171 % of control
T/C [6]: 187 % of control and 194 % of control

C=C(CN(C)C)C(=O)c1ccccc1
T/C (dose: 0.94 mg/kg/injection, schedule: Q01DX005 (ip), vehicle: saline): 122 % of control
T/C (dose: 1.25 mg/kg/injection, schedule: Q01DX005 (ip), vehicle: saline): 112 % of control
T/C (dose: 1.88 mg/kg/injection, schedule: Q01DX005 (ip), vehicle: saline): 112 % of control
T/C (dose: 2.5 mg/kg/injection, schedule: Q01DX005 (ip), vehicle: saline): 112 % of control
T/C (dose: 3.75 mg/kg/injection, schedule: Q01DX005 (ip), vehicle: saline): 99 % of control and 97 % of control
T/C (dose: 5.0 mg/kg/injection, schedule: Q01DX005 (ip), vehicle: saline): 98 % of control and 104 % of control

CSc1nc(NC2OC(COC(C)=O)C(OC(C)=O)C(OC(C)=O)C2OC(C)=O)c(N=C(C)C(C)=O)c(=O)n1C (stereo unspecified)
T/C [7]: 90 % of control
T/C [8]: 91 % of control

Cn1c(=O)ccc2c(=O)c3cc(Br)ccc3oc21
T/C (dose: 100.0 mg/kg/injection, schedule: Q01DX001 (ip), vehicle: saline with Tween-80): 98 % of control
T/C (dose: 200.0 mg/kg/injection, schedule: Q01DX001 (ip), vehicle: saline with Tween-80): 107 % of control
T/C (dose: 400.0 mg/kg/injection, schedule: Q01DX001 (ip), vehicle: saline with Tween-80): 96 % of control

Cn1c(N)c(C(=O)C(F)(F)F)c(=O)n(C)c1=O
T/C [9]: 99 % of control
T/C [10]: 95 % of control
T/C [11]: 95 % of control

O=C1OC(C2=CC(=O)c3ccccc3C2=O)C(Cl)=C1Cl (stereo unspecified)
T/C [3]: 121 % of control
T/C [4]: 109 % of control

CCN(CC)c1ccc2cc(S(=O)(=O)c3ccccc3)c(=O)oc2c1
T/C [7]: 91 % of control
T/C [8]: 86 % of control

[CH3][Sn]([CH3])([N](c1ccccn1)c1ccccn1)[N](c1ccccn1)c1ccccn1
T/C [1]: 111 % of control
T/C [2]: 118 % of control

Cn1cccc1C(C=C(c1ccccc1)c1ccccc1)c1cccn1C
T/C (dose: 12.5 mg/kg/injection, schedule: Q01DX005 (ip), vehicle: saline with Tween-80): 113 % of control
T/C (dose: 25.0 mg/kg/injection, schedule: Q01DX005 (ip), vehicle: saline with Tween-80): 114 % of control
T/C [3]: 104 % of control and 88 % of control

O=C1C=CC(=O)C2(CO)OC12 (stereo unspecified)
T/C (dose: 1.88 mg/kg/injection, schedule: Q04DX002 (ip), vehicle: saline with Tween-80): 95 % of control
T/C (dose: 3.75 mg/kg/injection, schedule: Q04DX002 (ip), vehicle: saline with Tween-80): 102 % of control

c1ccc(-c2cc3cc4ccccc4cn3c2)cc1
T/C [9]: 105 % of control
T/C [10]: 108 % of control and 112 % of control and 92 % of control
T/C [11]: 117 % of control and 96 % of control
T/C (dose: 400.0 mg/kg/injection, schedule: Q01DX009 (ip), vehicle: saline with Tween-80): 108 % of control and 120 % of control
T/C (dose: 600.0 mg/kg/injection, schedule: Q01DX009 (ip), vehicle: saline with Tween-80): 117 % of control

O=C1CSC(c2cccc(Cl)c2)N1N1C(=O)CSC1c1cccc(Cl)c1 (stereo unspecified)
T/C (dose: 60.0 mg/kg/injection, schedule: Q01DX005 (ip), vehicle: Klucel (hydroxypropylcellulose) (HPC)): 102 % of control
T/C [5]: 97 % of control
T/C [6]: 94 % of control

O=C1c2c3c(c4c(c2C(=O)c2c5c(c6c(c21)CCCC6)CCCC5)CCCC4)CCCC3
T/C (dose: 7.5 mg/kg/injection, schedule: Q01DX009 (ip), vehicle: saline with Tween-80): 99 % of control
T/C (dose: 15.0 mg/kg/injection, schedule: Q01DX009 (ip), vehicle: saline with Tween-80): 98 % of control
T/C (dose: 30.0 mg/kg/injection, schedule: Q01DX009 (ip), vehicle: saline with Tween-80): 103 % of control

O=C1c2ccccc2C(=O)c2c(O)c(NCCNCCO)cc(O)c21
T/C (dose: 1.25 mg/kg/injection, schedule: Q01DX009 (ip), vehicle: acid diluted with saline): 113 % of control
T/C (dose: 2.5 mg/kg/injection, schedule: Q01DX009 (ip), vehicle: acid diluted with saline): 98 % of control and 104 % of control
T/C (dose: 5.0 mg/kg/injection, schedule: Q01DX009 (ip), vehicle: acid diluted with saline): 117 % of control and 122 % of control
T/C (dose: 10.0 mg/kg/injection, schedule: Q01DX009 (ip), vehicle: acid diluted with saline): 108 % of control and 124 % of control
T/C (dose: 20.0 mg/kg/injection, schedule: Q01DX009 (ip), vehicle: acid diluted with saline): 104 % of control and 118 % of control
T/C (dose: 40.0 mg/kg/injection, schedule: Q01DX009 (ip), vehicle: acid diluted with saline): 108 % of control
T/C (dose: 80.0 mg/kg/injection, schedule: Q01DX009 (ip), vehicle: acid diluted with saline): 89 % of control

O=C(Nc1ccc(F)cc1)Nc1nccs1
T/C (dose: 17.5 mg/kg/injection, schedule: Q01DX009 (ip), vehicle: Klucel (hydroxypropylcellulose) (HPC)): 108 % of control
T/C (dose: 35.0 mg/kg/injection, schedule: Q01DX009 (ip), vehicle: Klucel (hydroxypropylcellulose) (HPC)): 110 % of control
T/C [9]: 96 % of control
T/C (dose: 70.0 mg/kg/injection, schedule: Q01DX009 (ip), vehicle: Klucel (hydroxypropylcellulose) (HPC)): 108 % of control
T/C [10]: 95 % of control
T/C (dose: 140.0 mg/kg/injection, schedule: Q01DX009 (ip), vehicle: Klucel (hydroxypropylcellulose) (HPC)): 115 % of control
T/C [11]: 104 % of control

Cc1nc2nc3n(c(=O)c2nc1C)CCS3
T/C (dose: 100.0 mg/kg/injection, schedule: Q01DX001 (ip), vehicle: saline): 103 % of control
T/C (dose: 200.0 mg/kg/injection, schedule: Q01DX001 (ip), vehicle: saline): 108 % of control
T/C (dose: 400.0 mg/kg/injection, schedule: Q01DX001 (ip), vehicle: saline): 102 % of control
